# Laboratory results: patent US11673901B2, “Polycyclic compounds as allosteric SHP2 inhibitors” (Revolution Medicines, Inc., priority 2017, dated 2023)
# Target: SHP2 (Homo sapiens (Human), UniProt Q06124)
# Experiment: SHP2 allosteric inhibition assay (DiFMUP prompt fluorescence)
# Format: biochemical
# Conditions: 0.2 nM SHP2 activated with 0.5 μM Activating Peptide 1 or 2; substrate DiFMUP; Table 2, class symbols
# Excerpt: Without wishing to be bound by theory, SHP2 is allosterically activated through binding of bis-tyrosyl-phosphorylated peptides to its Src Homology 2 (SH2) domains. The latter activation step leads to the release of the auto-inhibitory interface of SHP2, which in turn renders the SHP2 protein tyrosine phosphatase (PTP) active and available for substrate recognition and reaction catalysis. The catalytic activity of SHP2 was monitored using the surrogate substrate DiFMUP in a prompt fluorescence assay format.
# The phosphatase reactions were performed at room temperature in 96-well black polystyrene plate, flat bottom, non-binding surface (Corning, Cat #3650) using a final reaction volume of 100 μL and the following assay buffer conditions: 50 mM HEPES, pH 7.2, 100 mM NaCl, 0.5 mM EDTA, 0.05% P-20, 1 mM DTT.
# The inhibition of SHP2 by compounds of the invention (concentrations varying from 0.00005-10 μM) was monitored using an assay in which 0.2 nM of SHP2 was incubated with 0.5 μM of Activating Peptide 1 (sequence: H2N-LN(pY)IDLDLV(dPEG8)LST(pY)ASINFQK-amide) or Activating Peptide 2 (sequence: H2N-LN(pY)AQLWHA(dPEG8)LTI(pY)ATIRRF-amide). After 30-60-minutes incubation at 25° C., the surrogate substrate DiFMUP (Invitrogen, Cat #D6567) was added to the reaction and activity was determined by a kinetic read using a microplate reader (Envision, Perkin-Elmer or Spectramax M5, Molecular Devices). The excitation and emission wavelengths were 340 nm and 450 nm, respectively. Initial rates were determined from a linear fit of the data, and the inhibitor dose response curves were analyzed using normalized IC50 regression curve fitting with control based normalization.
# SHP2, sequence (Q06124 whole entry): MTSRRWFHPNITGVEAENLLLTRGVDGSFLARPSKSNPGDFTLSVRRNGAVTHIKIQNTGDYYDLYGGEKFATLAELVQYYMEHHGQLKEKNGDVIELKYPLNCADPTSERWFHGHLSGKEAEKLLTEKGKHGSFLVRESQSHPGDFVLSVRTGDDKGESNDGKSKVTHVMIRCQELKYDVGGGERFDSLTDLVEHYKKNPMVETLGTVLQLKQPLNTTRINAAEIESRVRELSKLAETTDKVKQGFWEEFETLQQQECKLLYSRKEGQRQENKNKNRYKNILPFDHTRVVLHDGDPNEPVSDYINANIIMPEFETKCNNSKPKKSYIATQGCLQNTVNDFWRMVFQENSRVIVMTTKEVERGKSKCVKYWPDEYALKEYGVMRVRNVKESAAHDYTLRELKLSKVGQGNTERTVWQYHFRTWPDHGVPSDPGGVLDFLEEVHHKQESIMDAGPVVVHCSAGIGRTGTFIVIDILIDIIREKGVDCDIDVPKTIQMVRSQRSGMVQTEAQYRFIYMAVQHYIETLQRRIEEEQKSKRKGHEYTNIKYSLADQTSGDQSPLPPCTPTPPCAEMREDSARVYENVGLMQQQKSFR
row,SMILES,IC50
1,"Cc1nc(N2CCC3(CC2)CO[C@@H](C)[C@H]3N)n2ccnc2c1-c1cc(Cl)c2cn[nH]c2c1 [Compound 37, (3S,4S)-8-[8-(4-chloro-2H-indazol-6-yl)-7-methylimidazo[1,2-c]pyrimidin-5-yl]-3-methyl-2-oxa-8-azaspiro[4.5]decan-4-amine]",≤ 0.05 µM
2,"Cc1nc(N2CCC3(CC2)CO[C@@H](C)[C@H]3N)n2ccnc2c1-c1cccc2nc[nH]c12 [Compound 32, (3S,4S)-8-[8-(1H-1,3-benzodiazol-4-yl)-7-methylimidazo[1,2-c]pyrimidin-5-yl]-3-methyl-2-oxa-8-azaspiro[4.5]decan-4-amine]",≤ 0.05 µM
3,"Cc1nc(N2CCC3(CC2)CO[C@@H](C)[C@H]3N)n2ccnc2c1-c1cccc2c(Cl)c[nH]c12 [Compound 50, (3S,4S)-8-[8-(3-chloro-1H-indol-7-yl)-7-methylimidazo[1,2-c]pyrimidin-5-yl]-3-methyl-2-oxa-8-azaspiro[4.5]decan-4-amine]",≤ 0.05 µM
4,"Nc1nccc(Sc2cnc(O[C@H]3CC[C@@H](N)C3)n3ccnc23)c1Cl [Compound 81, 4-[(5-{[(1S,3R)-3-aminocyclopentyl]oxy}imidazo[1,2-c]pyrimidin-8-yl)sulfanyl]-3-chloropyridin-2-amine]",> 0.5 µM
5,"Nc1nccc(Sc2cnc(N3C[C@@H]4[C@@H](N)[C@@H]4C3)n3ccnc23)c1Cl [Compound 25, (1R,5S,6R)-3-{8-[(2-amino-3-chloropyridin-4-yl)sulfanyl]imidazo[1,2-c]pyrimidin-5-yl}-3-azabicyclo[3.1.0]hexan-6-amine]",0.05 to 0.5 µM
6,"Cc1nc(N2CCC3(CC2)CO[C@@H](C)[C@H]3N)n2ccnc2c1-c1ccc2[nH]ncc2c1 [Compound 39, (3S,4S)-8-[8-(2H-indazol-5-yl)-7-methylimidazo[1,2-c]pyrimidin-5-yl]-3-methyl-2-oxa-8-azaspiro[4.5]decan-4-amine]",≤ 0.05 µM
7,"C[C@@H]1OCC2(CCN(c3ncc(Sc4ccnc5[nH]ccc45)c4nccn34)CC2)[C@@H]1N [Compound 15, (3S,4S)-3-methyl-8-(8-{1H-pyrrolo[2,3-b]pyridin-4-ylsulfanyl}imidazo[1,2-c]pyrimidin-5-yl)-2-oxa-8-azaspiro[4.5]decan-4-amine]",≤ 0.05 µM
8,Nc1nccc(Sc2cnc(N3CCC[C@@H]3CO)n3ccnc23)c1Cl [Compound 72],> 0.5 µM
9,Nc1nccc(Sc2cnc(N3CC[C@@H](O)C3)n3ccnc23)c1Cl [Compound 77],> 0.5 µM
10,"Cc1nc(N2CCC3(CC2)CO[C@@H](C)[C@H]3N)n2ccnc2c1-c1cc2[nH]ncc2cc1Cl [Compound 38, (3S,4S)-8-[8-(5-chloro-2H-indazol-6-yl)-7-methylimidazo[1,2-c]pyrimidin-5-yl]-3-methyl-2-oxa-8-azaspiro[4.5]decan-4-amine]",≤ 0.05 µM
11,"Nc1nccc(Sc2cnc(N3CCC4(CC3)CNC4)n3ccnc23)c1Cl [Compound 20, 3-chloro-4-[(5-{2,7-diazaspiro[3.5]nonan-7-yl}imidazo[1,2-c]pyrimidin-8-yl)sulfanyl]pyridin-2-amine]",0.05 to 0.5 µM
12,"C[C@@H]1OCC2(CCN(c3ncc(-c4cccc(Cl)c4Cl)c4nccn34)CC2)[C@@H]1N [Compound 56, (3S,4S)-8-[8-(2,3-dichlorophenyl)imidazo[1,2-c]pyrimidin-5-yl]-3-methyl-2-oxa-8-azaspiro[4.5]decan-4-amine]",≤ 0.05 µM
13,"Cc1nc(N2CCC3(CC2)CO[C@@H](C)[C@H]3N)n2ccnc2c1-c1cccc(C#N)c1Cl [Compound 45, 3-{5-[(3S,4S)-4-amino-3-methyl-2-oxa-8-azaspiro[4.5]decan-8-yl]-7-methylimidazo[1,2-c]pyrimidin-8-yl}-2-chlorobenzonitrile]",≤ 0.05 µM
14,"C[C@@H]1OCC2(CCN(c3cnc(Sc4ccnc(N)c4Cl)c4nccn34)CC2)[C@@H]1N [Compound 65, (3S,4S)-8-{8-[(2-amino-3-chloropyridin-4-yl)sulfanyl]imidazo[1,2-a]pyrazin-5-yl}-3-methyl-2-oxa-8-azaspiro[4.5]decan-4-amine]",> 0.5 µM
15,"COc1cccc(-c2c(C)nc(N3CCC4(CC3)CO[C@@H](C)[C@H]4N)n3ccnc23)c1Cl [Compound 9, (3S,4S)-8-[8-(2-chloro-3-methoxyphenyl)-7-methylimidazo[1,2-c]pyrimidin-5-yl]-3-methyl-2-oxa-8-azaspiro[4.5]decan-4-amine]",≤ 0.05 µM
16,"C[C@@H]1OCC2(CCN(c3ncc(-c4ccnc(N)c4)c4nccn34)CC2)[C@@H]1N [Compound 58, (3S,4S)-8-[8-(2-aminopyridin-4-yl)imidazo[1,2-c]pyrimidin-5-yl]-3-methyl-2-oxa-8-azaspiro[4.5]decan-4-amine]",> 0.5 µM
17,"Cc1nc(N2CCC3(CC2)CO[C@@H](C)[C@H]3N)n2ccnc2c1-c1cc2ccccc2n1C [Compound 40, (3S,4S)-3-methyl-8-[7-methyl-8-(1-methyl-1H-indol-2-yl)imidazo[1,2-c]pyrimidin-5-yl]-2-oxa-8-azaspiro[4.5]decan-4-amine]",≤ 0.05 µM
18,"Nc1nccc(Sc2cnc(N3CC4(CC(N)C4)C3)n3ccnc23)c1Cl [Compound 19, 2-{8-[(2-amino-3-chloropyridin-4-yl)sulfanyl]imidazo[1,2-c]pyrimidin-5-yl}-2-azaspiro[3.3]heptan-6-amine]",> 0.5 µM
